# ± gives the expanded uncertainty stated by the source.
# Key:
# [1] = excess molar enthalpy (molar enthalpy of mixing); xn = mol fraction of the nth substance listed; conditions: 298.15 K, 101.3 kPa, Liquid, Flow calorimetry
# [2] = Liquid
SMILES,vapor or sublimation pressure ([2]; 278.15 K),vapor or sublimation pressure ([2]; 283.15 K),vapor or sublimation pressure ([2]; 288.15 K),vapor or sublimation pressure ([2]; 293.15 K),vapor or sublimation pressure ([2]; 298.15 K),vapor or sublimation pressure ([2]; 303.15 K),vapor or sublimation pressure ([2]; 308.15 K),vapor or sublimation pressure ([2]; 313.15 K),vapor or sublimation pressure ([2]; 318.15 K),vapor or sublimation pressure ([2]; 323.15 K),also measured
CCCCBr [1-bromobutane] + CC(C)CO,–,–,–,–,–,–,–,–,–,–,excess molar enthalpy ([1]; x2 = 0.0421): 0.127 ± 0.00287 kcal/mol; excess molar enthalpy ([1]; x2 = 0.0942): 0.203 ± 0.0043 kcal/mol; excess molar enthalpy ([1]; x2 = 0.1932): 0.269 ± 0.00574 kcal/mol; excess molar enthalpy ([1]; x2 = 0.2938): 0.298 ± 0.00645 kcal/mol; excess molar enthalpy ([1]; x2 = 0.3468): 0.304 ± 0.00645 kcal/mol; excess molar enthalpy ([1]; x2 = 0.3957): 0.304 ± 0.00645 kcal/mol; excess molar enthalpy ([1]; x2 = 0.4476): 0.298 ± 0.00645 kcal/mol; excess molar enthalpy ([1]; x2 = 0.499): 0.288 ± 0.00621 kcal/mol; excess molar enthalpy ([1]; x2 = 0.6): 0.258 ± 0.0055 kcal/mol; excess molar enthalpy ([1]; x2 = 0.7021): 0.213 ± 0.00454 kcal/mol; excess molar enthalpy ([1]; x2 = 0.8052): 0.152 ± 0.00335 kcal/mol; excess molar enthalpy ([1]; x2 = 0.906): 0.0789 ± 0.00167 kcal/mol; excess molar enthalpy ([1]; x2 = 0.9587): 0.038 ± 0.000956 kcal/mol
CC(C)CO [2-methyl-1-propanol],0.335 ± 0.011 kPa,0.505 ± 0.011 kPa,0.739 ± 0.012 kPa,1.057 ± 0.013 kPa,1.501 ± 0.014 kPa,2.133 ± 0.014 kPa,2.956 ± 0.015 kPa,4.026 ± 0.016 kPa,5.444 ± 0.018 kPa,7.237 ± 0.02 kPa,–
CCCCBr [1-bromobutane] + CCC(C)O,–,–,–,–,–,–,–,–,–,–,excess molar enthalpy ([1]; x2 = 0.0424): 0.124 ± 0.00263 kcal/mol; excess molar enthalpy ([1]; x2 = 0.0948): 0.221 ± 0.00478 kcal/mol; excess molar enthalpy ([1]; x2 = 0.1942): 0.306 ± 0.00645 kcal/mol; excess molar enthalpy ([1]; x2 = 0.2951): 0.35 ± 0.00741 kcal/mol; excess molar enthalpy ([1]; x2 = 0.3482): 0.363 ± 0.00765 kcal/mol; excess molar enthalpy ([1]; x2 = 0.3973): 0.369 ± 0.00789 kcal/mol; excess molar enthalpy ([1]; x2 = 0.4492): 0.366 ± 0.00789 kcal/mol; excess molar enthalpy ([1]; x2 = 0.5006): 0.36 ± 0.00765 kcal/mol; excess molar enthalpy ([1]; x2 = 0.6015): 0.333 ± 0.00717 kcal/mol; excess molar enthalpy ([1]; x2 = 0.7035): 0.285 ± 0.00621 kcal/mol; excess molar enthalpy ([1]; x2 = 0.8062): 0.212 ± 0.00454 kcal/mol; excess molar enthalpy ([1]; x2 = 0.9066): 0.117 ± 0.00263 kcal/mol; excess molar enthalpy ([1]; x2 = 0.959): 0.0588 ± 0.00143 kcal/mol
CCC(C)O (stereo unspecified) [butan-2-ol],0.519 ± 0.011 kPa,0.78 ± 0.012 kPa,1.137 ± 0.013 kPa,1.648 ± 0.014 kPa,2.324 ± 0.014 kPa,3.256 ± 0.016 kPa,4.462 ± 0.017 kPa,6.048 ± 0.019 kPa,8.105 ± 0.022 kPa,10.71 ± 0.025 kPa,–
CCCCBr [1-bromobutane],1.86 ± 0.014 kPa,2.48 ± 0.015 kPa,3.265 ± 0.016 kPa,4.261 ± 0.017 kPa,5.506 ± 0.018 kPa,7.039 ± 0.02 kPa,8.899 ± 0.023 kPa,11.15 ± 0.026 kPa,13.87 ± 0.03 kPa,17.09 ± 0.035 kPa,–

# From the NIST ThermoML archive (doi:10.1021/je020110g)
